Like-named read-outs stand apart in the source and are kept apart here.
Columns and labels:
[1] = test system: GM1 production in Jurkat cells; experiment: cells; assay type: cell-based
[2] = target: glucosylceramide synthase (GCS) (Homo sapiens (Human), UniProt Q16739); experiment: Inhibitory activity against GCS (A549 cell lysate enzyme reaction, HPLC fluorescence); assay type: biochemical; settings: NBD C6-ceramide and UDP-glucose, 37° C. for 90 minutes
Protocol: Ibiglustat, known as a GCS inhibitor, was used as a control.
After the cells attached to the culture dish were washed with phosphate buffered saline (PBS), the cells were scraped off with a cell scraper and then centrifuged (4000 rpm, 3 min, 4° C.) to collect the cells in a 50 ml tube. The cell pellets were suspended in a lysis buffer (50 mM HEPES, pH 7.3, containing 1× the protease/phosphatase inhibitor cocktail), lysed by sonication, and then the lysate was centrifuged (13000 rpm, 10 min, 4° C.). The obtained supernatant was used for the quantitative analysis of proteins. The amount of proteins was measured using the BCA protein assay kit, using bovine serum albumin as a standard.
Enzymatic reactions were initiated by sequentially adding the following reaction materials to a 96 deep-well plate. Thereafter, the enzymatic reactions were performed at 37° C. for 90 minutes.
The enzymatic reactions were stopped by adding 100 μl of chloroform/methanol (2:1, v/v). […] The lower layer (50 μl) was transferred to a new 96 deep-well plate and dried with a reduced concentrator.

Row | Molecule | IC50 ([1]; Homo sapiens, Jurkat, 72 h) | other results
1 | (S)-quinuclidin-3-yl (2,2-dimethyl-(2,4,5-trifluorophenyl)-2,3-dihydro-1H-inden-1-yl)carbamate [Example 68] |  | IC50 ([1]; read-out: IC50): 91.8 nM; IC50 [2]: 15.2 nM
2 | CC1(C)Cc2cc(-c3ccccc3C(F)(F)F)ccc2C1NC(=O)O[C@@H]1CN2CCC1CC2 (stereo partly drawn) [Example 83, (S)-quinuclidin-3-yl (2,2-dimethyl-5-(2-(trifluoromethyl)phenyl)-2,3-dihydro-1H-inden-1-yl)carbamate] | 3.7 nM | 
3 | CCCOc1cc(F)ccc1-c1ccc2c(c1)CC(C)(C)C2NC(=O)O[C@@H]1CN2CCC1CC2 (stereo partly drawn) [Example 239, (S)-quinuclidin-3-yl (5-(4-fluoro-2-propoxyphenyl)-2,2-dimethyl-2,3-dihydro-1H-inden-1-yl)carbamate] | 48.9 nM | 
4 | Cc1cc(F)cc(-c2ccc3c(c2)CC(C)(C)C3NC(=O)O[C@@H]2CN3CCC2CC3)c1 (stereo partly drawn) [Example 219, (S)-quinuclidin-3-yl (5-(3-fluoro-5-methylphenyl)-2,2-dimethyl-2,3-dihydro-1H-inden-1-yl)carbamate] | 30.4 nM | 
5 | COc1cc(-c2ccc3c(c2)CC(C)(C)C3NC(=O)O[C@@H]2CN3CCC2CC3)ccc1F (stereo partly drawn) [Example 226, (S)-quinuclidin-3-yl (5-(4-fluoro-3-methoxyphenyl)-2,2-dimethyl-2,3-dihydro-1H-inden-1-yl)carbamate] | 57 nM | 
6 | CC1(C)Cc2cc(-c3ccccc3F)ccc2C1NC(=O)O[C@@H]1CN2CCC1CC2 (stereo partly drawn) [Example 81, (S)-quinuclidin-3-yl (5-(2-fluorophenyl)-2,2-dimethyl-2,3-dihydro-1H-inden-1-yl)carbamate] | 12.2 nM | 
7 | CCc1ccccc1-c1ccc2c(c1)CC(C)(C)C2NC(=O)O[C@@H]1CN2CCC1CC2 (stereo partly drawn) [Example 175, (S)-quinuclidin-3-yl (5-(2-ethylphenyl)-2,2-dimethyl-2,3-dihydro-1H-inden-1-yl)carbamate] | 42.8 nM | 
8 | CC1(C)Cc2cc(-c3ccc4c(c3)CCO4)ccc2C1NC(=O)O[C@@H]1CN2CCC1CC2 (stereo partly drawn) [Example 113, (S)-quinuclidin-3-yl (5-(2,3-dihydrobenzofuran-5-yl)-2,2-dimethyl-2,3-dihydro-1H-inden-1-yl)carbamate] | 54.8 nM | 
9 | COc1cccc(-c2cc3c(cc2F)C(NC(=O)O[C@@H]2CN4CCC2CC4)C(C)(C)C3)c1 (stereo partly drawn) [Example 375, (S)-quinuclidin-3-yl (6-fluoro-5-(3-methoxyphenyl)-2,2-dimethyl-2,3-dihydro-1H-inden-1-yl)carbamate] | 23 nM | 
10 | COc1ccc(OC)c(-c2ccc3c(c2)CC(C)(C)C3NC(=O)O[C@@H]2CN3CCC2CC3)c1 (stereo partly drawn) [Example 167, (S)-quinuclidin-3-yl (5-(2,5-dimethoxyphenyl)-2,2-dimethyl-2,3-dihydro-1H-inden-1-yl)carbamate] | 3.8 nM | 
11 | CC(C)Oc1cccc(-c2ccc3c(c2)CC(C)(C)C3NC(=O)O[C@@H]2CN3CCC2CC3)c1 (stereo partly drawn) [Example 105, (S)-quinuclidin-3-yl (5-(3-isopropoxyphenyl)-2,2-dimethyl-2,3-dihydro-1H-inden-1-yl)carbamate] | 15.2 nM | 
12 | CC1(C)Oc2cc(-c3cccc(Cl)c3)ccc2C1NC(=O)O[C@@H]1CN2CCC1CC2 (stereo partly drawn) [Example 408, (S)-quinuclidin-3-yl (6-(3-chlorophenyl)-2,2-dimethyl-2,3-dihydrobenzofuran-3-yl)carbamate] | 15.8 nM | 
13 | CC(C)COc1cccc(-c2ccc3c(c2)CC(C)(C)C3NC(=O)O[C@@H]2CN3CCC2CC3)c1 (stereo partly drawn) [Example 205, (S)-quinuclidin-3-yl (5-(3-isobutoxyphenyl)-2,2-dimethyl-2,3-dihydro-1H-inden-1-yl)carbamate] | 7.6 nM | 
14 | CCCOc1c(C)cc(-c2cc3c(cc2OC)C(NC(=O)O[C@@H]2CN4CCC2CC4)C(C)(C)C3)cc1C (stereo partly drawn) [Example 321, (S)-quinuclidin-3-yl (5-(3,5-dimethyl-4-propoxyphenyl)-6-methoxy-2,2-dimethyl-2,3-dihydro-1H-inden-1-yl)carbamate] | 31.9 nM | 
15 | CC(C)Cc1cccc(-c2cc3c(cc2F)C(NC(=O)O[C@@H]2CN4CCC2CC4)C(C)(C)C3)c1 (stereo partly drawn) [Example 372, (S)-quinuclidin-3-yl (6-fluoro-5-(3-isobutylphenyl)-2,2-dimethyl-2,3-dihydro-1H-inden-1-yl)carbamate] | 46.2 nM | 
16 | CCOc1ccc(-c2ccc3c(c2)CC(C)(C)C3NC(=O)O[C@@H]2CN3CCC2CC3)cn1 (stereo partly drawn) [Example 262, (S)-quinuclidin-3-yl (5-(6-ethoxypyridin-3-yl)-2,2-dimethyl-2,3-dihydro-1H-inden-1-yl)carbamate] | 34.4 nM | 
17 | CCCc1ccc(-c2ccc3c(c2)CC(CC)(CC)C3NC(=O)O[C@@H]2CN3CCC2CC3)cc1 (stereo partly drawn) [Example 278, (S)-quinuclidin-3-yl (2,2-diethyl-5-(4-propylphenyl)-2,3-dihydro-1H-inden-1-yl)carbamate] | 6 nM | 
18 | COc1cc2c(cc1-c1ccc(OCC3CC3)nc1)CC(C)(C)C2NC(=O)O[C@@H]1CN2CCC1CC2 (stereo partly drawn) [Example 326, (S)-quinuclidin-3-yl (5-(6-(cyclopropylmethoxy)pyridin-3-yl)-6-methoxy-2,2-dimethyl-2,3-dihydro-1H-inden-1-yl)carbamate] | 10.8 nM | 
19 | COc1cccc(-c2ccc3c(c2)CC(C)(C)C3NC(=O)O[C@@H]2CN3CCC2CC3)c1Cl (stereo partly drawn) [Example 124, (S)-quinuclidin-3-yl (5-(2-chloro-3-methoxyphenyl)-2,2-dimethyl-2,3-dihydro-1H-inden-1-yl)carbamate] | 22.3 nM | 
20 | Cc1cc(-c2ccc3c(c2)CC(C)(C)C3NC(=O)O[C@@H]2CN3CCC2CC3)ccc1N1CCOCC1 (stereo partly drawn) [Example 151, (S)-quinuclidin-3-yl (2,2-dimethyl-5-(3-methyl-4-morpholinophenyl)-2,3-dihydro-1H-inden-1-yl)carbamate] | 37.9 nM | 
21 | Cc1ccc(-c2ccc3c(c2)CC(C)(C)C3NC(=O)O[C@@H]2CN3CCC2CC3)cc1F (stereo partly drawn) [Example 215, (S)-quinuclidin-3-yl (5-(3-fluoro-4-methylphenyl)-2,2-dimethyl-2,3-dihydro-1H-inden-1-yl)carbamate] | 14.9 nM | 
22 | CSc1cc(-c2ccc3c(c2)CC(C)(C)C3NC(=O)O[C@@H]2CN3CCC2CC3)cc(C(F)(F)F)c1 (stereo partly drawn) [Example 248, (S)-quinuclidin-3-yl (2,2-dimethyl-5-(3-(methylthio)-5-(trifluoromethyl)phenyl)-2,3-dihydro-1H-inden-1-yl)carbamate] | 14.9 nM | 
23 | CCc1cccc(-c2cc3c(cc2F)C(NC(=O)O[C@@H]2CN4CCC2CC4)C(C)(C)C3)c1 (stereo partly drawn) [Example 371, (S)-quinuclidin-3-yl (5-(3-ethylphenyl)-6-fluoro-2,2-dimethyl-2,3-dihydro-1H-inden-1-yl)carbamate] | 24.8 nM | 
24 | CN(C)CCOc1cccc(-c2ccc3c(c2)CC(C)(C)C3NC(=O)O[C@@H]2CN3CCC2CC3)c1 (stereo partly drawn) [Example 139, (S)-quinuclidin-3-yl (5-(3-(2-(dimethylamino)ethoxy)phenyl)-2,2-dimethyl-2,3-dihydro-1H-inden-1-yl)carbamate] | 74.4 nM | 
25 | CC1(C)Cc2cc(-c3ccc(N4CCOCC4)cc3)ccc2C1NC(=O)O[C@@H]1CN2CCC1CC2 (stereo partly drawn) [Example 148, (S)-quinuclidin-3-yl (2,2-dimethyl-5-(4-morpholinophenyl)-2,3-dihydro-1H-inden-1-yl)carbamate] | 30 nM | 
26 | COc1ccc(-c2cc3c(cc2OC)C(NC(=O)O[C@@H]2CN4CCC2CC4)C(C)(C)C3)c(Cl)c1 (stereo partly drawn) [Example 346, (S)-quinuclidin-3-yl (5-(2-chloro-4-methoxyphenyl)-6-methoxy-2,2-dimethyl-2,3-dihydro-1H-inden-1-yl)carbamate] | 38.3 nM | 
27 | COc1cc2c(cc1-c1ccc(OC(C)C)c(Cl)c1)CC(C)(C)C2NC(=O)O[C@@H]1CN2CCC1CC2 (stereo partly drawn) [Example 322, (S)-quinuclidin-3-yl (5-(3-chloro-4-isopropoxyphenyl)-6-methoxy-2,2-dimethyl-2,3-dihydro-1H-inden-1-yl)carbamate] | 24.4 nM | 
28 | CC1(C)Oc2cc(-c3cccc(F)c3)ccc2C1NC(=O)O[C@@H]1CN2CCC1CC2 (stereo partly drawn) [Example 407, (S)-quinuclidin-3-yl (6-(3-fluorophenyl)-2,2-dimethyl-2,3-dihydrobenzofuran-3-yl)carbamate] | 44.4 nM | 

Reference: patent publication US12522602B2, “Derivatives having 2,3-dihydro-1H-indene or 2,3-dihydrobenzofuran moiety or pharmaceutically acceptable salt thereof and pharmaceutical compositions comprising the same” (YUHAN CORPORATION, priority 2019, dated 2026)
